According to patent US7122551B2, “Metalloproteinase inhibitor compounds” (AstraZeneca AB, priority 2000, dated 2006):

Assays:
[1] = biological activity of separated enantiomers / diastereomers (test not specified); conditions: enantiomers compared by order of elution; test and target not stated

SMILES | melting point [°C] | Biological activity of separated enantiomers [1]
O=CN(O)C(CCc1ncc(F)cn1)CS(=O)(=O)N1CCN(c2ccc(Cl)cn2)CC1 (stereo not drawn) [Example 2, N-[1-([4-(5-chloropyridin-2-yl)piperazino]sulfonylmethyl)-3-(5-fluoropyrimidin-2-yl)propyl]-N-hydroxyformamide] | 154 to 155 | –
O=CN(O)[C@@H](CCCc1ncccn1)CS(=O)(=O)N1CCN(c2ccc(Cl)cn2)CC1 [Example 4, N-[(1S)-1-({[4-(5-chloropyridin-2-yl)piperazino]sulfonyl}methyl)-4-(pyrimidin-2-yl)butyl]-N-hydroxyformamide] | 124.5 to 126.5 | –
O=CN(O)[C@@H](CCc1ncccn1)CS(=O)(=O)N1CCN(c2ccc(Cl)cn2)CC1 [Example 6 2nd enantiomer eluted, N-[(1S)-1-({[4-(5-chloropyridin-2-yl)piperazino]sulfonyl}methyl)-3-(pyrimidin-2-yl)propyl]-N-hydroxyformamide] | – | Biological activity lies in the compound eluted second from the column
